Measured values reported in patent publication US11534445B2, “Compositions and methods for immune-mediated cancer therapy” (Teclison Limited, priority 2015, dated 2022).
“Also recorded” adds a separate entry of the source.

Tests used:
[1] = Phase I dose-defining study of tirapazamine combined with TAE: tolerability; assay type: in vivo, human; conditions: 3 patients per cohort
Source text: (§1) In order to test the clinical tolerability and efficacy of tirapazamine combined with TAE in humans, a phase I dose-defining study was initiated in US major medical centers to examine the tolerability, preliminary efficacy and determine the recommended phase 2 dose (RP2D) of tirapazamine when combined with TAE. HCC patients enrolled were Child-Pugh class A, were not surgical candidates and had up to 4 tumor lesions with no tumor lesion size greater than 10 cm and were suitable for embolization. The results of the first 12 evaluable patients were available for analysis.
(§2) Three patients were enrolled in either cohort.

[2] = rat, in vivo
[3] = mouse, in vivo
Procedure: (§3) Treatment of tumor-bearing HBx mice with tirapazamine and hepatic artery ligation: The HBx transgenic mice were subjected to the left hepatic artery ligation for 40 min and the silk ligation was subsequently untied. During the studies on the drug effects, 0.9% saline, doxorubicin (10 mg/kg), or TPZ (3 mg/kg) were injected into the tail vein of each mouse for 7 min before the hepatic artery ligation. After completion of the injection, a midline laparotomy was performed to expose the left lobe of liver and liver hilum to dissect the left or common hepatic artery for transient ligation. All mice were anaesthetized with intraperitoneal injection of 400 mg/kg avertin (Sigma-Aldrich, St. Louis, Mo., USA) during experiments. Serial serum samples were collected for evaluating the ALT and total bilirubin by using ARKRAY Spotchem EZ Chemistry Analyzer SP-4430 (Arkray, Inc., Kyoto, Japan) within the first week. After 1 or 7 days, the liver tissues were collected for HE staining.

[4] = tested on: hepatocellular carcinoma; experiment: Phase I dose-defining study of tirapazamine combined with trans-arterial embolization (TAE): efficacy by contrast MRI, modified RECIST; assay type: in vivo, human; conditions: for response on contrast enhanced MRI at 6th week after embolization: individual patients/lesions treated with tirapazamine before TAE
Source text: as §1, §2
The preliminary efficacy of the first 12 patients was analyzed and is exemplified in FIG. 4. Efficacy outcome is read by contrast […] based on modified Response Evaluation Criteria In Solid Tumors (RECIST) criteria so that only the size of the viable tumor was measured. […] Three additional patients had over 30% necrosis or partial response (PR). The overall response rate (CR+PR) was 83%.

[5] = tested on: hepatocellular carcinoma (HCC) in HBx transgenic mice; experiment: Tirapazamine or doxorubicin plus left hepatic artery ligation (HAL) in tumor-bearing HBx transgenic mice: tumor necrosis by H&E histology; assay type: in vivo, mouse; conditions: for necrosis of HCCs in the territory of the left HAL, Day 7 (H&E): tirapazamine 3 mg/kg (n=3) or doxorubicin 10 mg/kg (n=2) IV + left HAL 40 min; for necrosis in the HCC within the territory of HAL, Day 1 post-treatment: tirapazamine 3 mg/kg or doxorubicin 10 mg/kg IV tail vein + transient left HAL, n=1 per group, histopathology
Procedure: Materials and methods: All the HBx transgenic mice were bred and followed-up in a specific pathogen-free facility; the tails of individual mice were subsequently collected for the genotyping process on weaning at 3 weeks of age. […] Transgenic mice having tumors 0.5-2 cm in diameter were used for the study.
as §3
Histology and morphometric analysis of tumor necrosis: For each mouse, the liver tissue containing the whole tumor and the adjacent non-tumorous region were fixed overnight in 10% formaldehyde and embedded in paraffin. The liver tissue sections (3 μm thickness) crossing the whole tumor were subjected to hematoxylin and eosin (H&E) staining for histological analysis. The percentage of necrosis in each tumor was quantified by dividing the necrotic area by the total tumor area in five cross sections covering the whole tumor, by using the ImageJ software (Version 1.46r, National Institutes of Health, Bethesda, Md., USA).
The HBx transgenic mice spontaneously develop hepatocellular carcinoma at approximately 18 months. […] Next, the efficacy of tirapazamine in combination with HAL was investigated and compared with a commonly used chemotherapy agent, doxorubicin, in TACE. A small group was first tested to compare the effects of saline (n=1), doxorubicin (10 mg/kg, n=1) and tirapazamine (3 mg/kg, n=1) to treat HBx transgenic mice that had palpable HCC, along with transient left HAL. Mice were sacrificed 1 day after treatment with tirapazamine and transient left HAL.
The same study was conducted to examine the histopathology changes at 7 days post treatment. The number of mice used for each group were saline (n=2), doxorubicin (10 mg/kg, n=2) and tirapazamine (3 mg/kg, n=3).

[6] = tested on: NCI-H460 human lung cancer cells; experiment: NCI-H460 lung cancer xenograft in BALB/c nude mice: tirapazamine plus vascular disrupting agent; assay type: in vivo, mouse; conditions: combretastatin A4 10 mg/kg i.v. or DMXAA 20 mg/kg i.v., 3-5 min after tirapazamine 30 mg/kg i.p.
Procedure: Materials and methods: Human lung cancer NCI-H460 cells were purchased from ATCC and used in this study. Cells were sub-cultured within 5 passages before inoculated into the mice. After the animals' acclimation period, approximately 1.5×10^6 NCI-H460 cells in 200 μL of serum-free media/matrigel (50:50 v/v) were injected subcutaneously to each mouse under anesthesia with 3-4% isoflurane. BALB/c nude mice, male, about 4-5 weeks and 18-20 g in weight were purchased from Shanghai SLAC Laboratory Animal Co. Ltd., China and housed in vivarium in 3-5 mice/cage by treatment group. Mice had free access to food (irradiated, Shanghai SLAC Laboratory Animal Co. Ltd. China) and water (municipal tap water filtered by Mol Ultrapure Water System).
Mice from each group were euthanized with CO2 asphyxiation followed by cervical dislocation at day 18 after the first dose, tumors were collected, weighed, and their pictures taken. The formalin fixed tumors were used for histopathology work. After formalin fixation, the tumors were paraffin embedded to get FFPE blocks. One block was made for each tumor chunk from one mouse. The FFPE blocks were sectioned at about 4 μm thick and processed for H&E staining, histopathology examination, and quantification of tumor necrosis. Detailed results are discussed further below. […]

Nc1n[n+]([O-])c2ccccc2[n+]1[O-] [tirapazamine]
toxicities / dose limiting toxicities ([1]; intra-arterial (IA) via hepatic artery 5 and 10 mg/m^2 + TAE): no observed toxicities or dose limiting toxicities (DLT)
toxicities / dose limiting toxicities ([1]; systemic IV infusion 5 and 10 mg/m^2 + TAE): no observed toxicities or dose limiting toxicities (DLT)
tolerability of IA administration followed by hepatic artery ligation [2]: well tolerated profile
total bilirubin in serum [3]: within the normal range
overall response rate (CR+PR) ([4]; first 12 evaluable patients): 83%
patients with over 30% necrosis or partial response (PR) ([4]; first 12 evaluable patients): Three
response on contrast enhanced MRI at 6th week after embolization [4]: complete response (CR)
response on contrast enhanced MRI at 6th week after embolization ([4]; listed as Tirapazamine): two treated lesions achieved CR
largest diameter of untreated lesion at 6th week follow-up ([4]; one patient, baseline 15 mm, two other lesions (26 and 10 mm) treated with tirapazamine + TAE): 9 mm
complete response (CR) by modified RECIST ([4]; single treatment of tirapazamine with TAE, first 12 patients): 6/12
tumor necrosis at dissection on Day 7 (pale color) ([5]; drug IV + transient HAL, FIG. 2D): evident that tumor necrosis occurred
necrosis of HCCs in the territory of the left HAL, Day 7 (H&E) [5]: 90-99%
inflammatory cell infiltration at margin of necrotic tumor ([5]; tirapazamine 3 mg/kg IV + left HAL, day 7, FIG. 3 inserts): high degree of inflammatory cell infiltration; also recorded: very strong inflammatory infiltrates
necrosis in the HCC within the territory of HAL, Day 1 post-treatment [5]: more than 99%
effective dose combined with transient HAL ([5]; titration study, HBx transgenic mouse model): 3 mg/kg

COc1cccc2c1C(=O)c1c(O)c3c(c(O)c1C2=O)C[C@@](O)(C(=O)CO)C[C@@H]3O[C@H]1C[C@H](N)[C@H](O)[C@H](C)O1 [doxorubicin]
total bilirubin in serum [3]: within the normal range
necrosis of HCCs in the territory of the left HAL, Day 7 (H&E) [5]: Little to no pathological changes
necrosis in the HCC within the territory of HAL, Day 1 post-treatment [5]: about 5%

COc1ccc(/C=C\c2cc(OC)c(OC)c(OC)c2)cc1O [combretastatin A4]
effect on tumor vasculature [6]: nearly immediate shutdown of the tumor vasculature

Cc1ccc2c(=O)c3cccc(CC(=O)O)c3oc2c1C [DMXAA, 5,6-Dimethylxanthenone-4-acetic acid]
effect on tumor vasculature [6]: nearly immediate shutdown of the tumor vasculature
